According to ChEMBL document CHEMBL6177915, “Design, synthesis and mechanistic insights into triclosan derived dimers as potential anti-plasmodials” (RSC Med Chem, 2025):
pIC50: −log10 of the molar value.

Key:
[1] = Cytotoxicity against African green monkey Vero E6 cells assessed as cell viability measured after 48 hrs incubation by MTT assay; assay type: toxicity, cell-based, Vero C1008; details: chlorocebus sabaeus
[2] = Selectivity index, ratio of CC50 for Cytotoxicity against African green monkey Vero E6 cells to IC50 for Antiplasmodial activity against CQ-resistant Plasmodium falciparum W2; assay type: toxicity, cell-based; details: read-out: Ratio CC50/IC50
Plasmodium falciparum [3] = experiment: Resistance index, ratio of IC50 for antiplasmodial activity against CQ-resistant Plasmodium falciparum W2 to IC50 for antiplasmodial activity against CQ-susceptible Plasmodium falciparum 3D7; assay type: functional
Plasmodium falciparum [4] = experiment: Antiplasmodial activity against CQ-susceptible Plasmodium falciparum 3D7 assessed as inhibition of parasite growth incubated for 72 hrs by HRP2 based ELISA; assay type: functional, organism-based; details: 3D7, 72 h
Plasmodium falciparum [5] = experiment: Antiplasmodial activity against CQ-resistant Plasmodium falciparum W2 assessed as inhibition of parasite growth incubated for 72 hrs by HRP2 based ELISA; assay type: functional, organism-based; details: W2, 72 h
Heme [6] = experiment: Binding affinity to heme assessed as binding constant logK of the compound in HEPES buffer at pH 7.4
Heme [7] = experiment: Binding affinity to heme assessed as binding constant logK of the compound in MES buffer at pH 5.6
Plasmodium falciparum [8] = experiment: Antiplasmodial activity against Plasmodium falciparum W2; assay type: functional, organism-based
[9] = Inhibition of Plasmodium falciparum enoyl ACP reductase

Structure (SMILES) | CC50 at 48 h [1] [µM] | selectivity ratio [2] | Ratio IC50 (Plasmodium falciparum [3]) | pIC50 (Plasmodium falciparum [4]) | pIC50 (Plasmodium falciparum [5]) | log K (Heme [6]) | log K (Heme [7]) | pIC50 (Plasmodium falciparum [8]) | pIC50 [9]
C=C[C@H]1C[N@@]2CC[C@H]1C[C@H]2[C@H](O)c1ccnc2ccc(OC)cc12 [QUININE] | > 100 | > 222 |  |  |  |  |  |  | 
Oc1cc(Cl)c(NCc2cn(CCCCCOc3cc(Cl)ccc3Oc3ccc(Cl)cc3Cl)nn2)cc1Oc1ccc(Cl)cc1Cl | 75 | 3.8 | 0.72 | 4.56 | 4.70 |  |  |  | 
CCN(CC)CCCC(C)Nc1ccnc2cc(Cl)ccc12 (configuration not stated) [CHLOROQUINE] | > 100 |  |  |  |  |  |  |  | 
Clc1ccc(Oc2ccc(Cl)cc2OCCCCOc2cc(Cl)ccc2Oc2ccc(Cl)cc2Cl)c(Cl)c1 | 99.7 | 4.5 | 0.93 | 4.62 | 4.65 |  |  |  | 
O=[N+]([O-])c1cc(Oc2ccc(Cl)cc2Cl)c(OCc2cn(CCCCCOc3cc(Cl)ccc3Oc3ccc(Cl)cc3Cl)nn2)cc1Cl | 116 | 3.8 | 1.08 | 4.55 | 4.51 |  |  |  | 
Oc1cc(Cl)c(NCc2cn(CCCCOc3cc(Cl)ccc3Oc3ccc(Cl)cc3Cl)nn2)cc1Oc1ccc(Cl)cc1Cl | 72.1 | 3.3 | 0.9 | 4.62 | 4.66 |  |  |  | 
C=C[C@H]1CN2CC[C@H]1C[C@H]2[C@H](O)c1ccnc2ccc(OC)cc12 [QUININE] |  |  | 3.75 | 6.92 | 6.35 |  |  |  | 
Clc1ccc(Oc2ccc(Cl)cc2OCCCOc2cc(Cl)ccc2Oc2ccc(Cl)cc2Cl)c(Cl)c1 | 81.5 | 2.6 | 1.11 | 4.56 | 4.51 |  |  |  | 
Oc1cc(Cl)c(NCc2cn(CCOc3cc(Cl)ccc3Oc3ccc(Cl)cc3Cl)nn2)cc1Oc1ccc(Cl)cc1Cl | 99.3 | 4.5 | 1.29 | 4.77 | 4.65 |  |  |  | 
Clc1ccc(Oc2ccc(Cl)cc2OCCCCCn2cc(COc3cc(Cl)ccc3Oc3ccc(Cl)cc3Cl)nn2)c(Cl)c1 | 64.6 | 2.6 | 1.3 | 4.71 | 4.60 |  |  |  | 
Clc1ccc(Oc2ccc(Cl)cc2OCCCCCOc2cc(Cl)ccc2Oc2ccc(Cl)cc2Cl)c(Cl)c1 | 70.2 | 2 | 1.31 | 4.58 | 4.46 |  |  |  | 
Clc1ccc(Oc2ccc(Cl)cc2OCCn2cc(COc3cc(Cl)ccc3Oc3ccc(Cl)cc3Cl)nn2)c(Cl)c1 | 105 | 4.9 | 0.97 | 4.66 | 4.67 |  |  |  | 
Oc1cc(Cl)c(NCc2cn(CCCOc3cc(Cl)ccc3Oc3ccc(Cl)cc3Cl)nn2)cc1Oc1ccc(Cl)cc1Cl | 76.8 | 7 | 0.52 | 4.68 | 4.96 | 5.17 | 6.3 |  | 
O=C(N/N=C/c1ccc(OCc2cn(CCNc3ccnc4cc(Cl)ccc34)nn2)cc1)c1cnncn1 |  |  |  |  |  |  |  | 6.59 | 
CCNCc1cc(Nc2ccnc3cc(Cl)ccc23)ccc1O [DESETHYL AMODIAQUINE] | 87 | 725 | 6 |  |  |  |  |  | 
O=[N+]([O-])c1cc(Oc2ccc(Cl)cc2Cl)c(OCc2cn(CCCCCCOc3cc(Cl)ccc3Oc3ccc(Cl)cc3Cl)nn2)cc1Cl | 54.9 | 2.2 | 0.96 | 4.58 | 4.60 |  |  |  | 
Oc1cc(Cl)c(NCc2cn(CCCCCCOc3cc(Cl)ccc3Oc3ccc(Cl)cc3Cl)nn2)cc1Oc1ccc(Cl)cc1Cl | 66.3 | 2.6 | 1.05 | 4.61 | 4.59 |  |  |  | 
Clc1ccc(Oc2ccc(Cl)cc2OCCOc2cc(Cl)ccc2Oc2ccc(Cl)cc2Cl)c(Cl)c1 | 90.9 | 9.8 | 0.77 | 4.92 | 5.03 | 6.4 | 6.58 |  | 
Clc1ccc(Oc2ccc(Cl)cc2OCCCCCCn2cc(COc3cc(Cl)ccc3Oc3ccc(Cl)cc3Cl)nn2)c(Cl)c1 | 104 | 3.2 | 1.04 | 4.51 | 4.49 |  |  |  | 
O=[N+]([O-])c1cc(Oc2ccc(Cl)cc2Cl)c(OCc2cn(CCCCOc3cc(Cl)ccc3Oc3ccc(Cl)cc3Cl)nn2)cc1Cl | 83.9 | 3.3 | 0.77 | 4.48 | 4.59 |  |  |  | 
Clc1ccc(Oc2ccc(Cl)cc2OCCCCn2cc(COc3cc(Cl)ccc3Oc3ccc(Cl)cc3Cl)nn2)c(Cl)c1 | 76.5 | 3.5 | 1.06 | 4.68 | 4.65 |  |  |  | 
N#Cc1ccc(Oc2ccc(Cl)cc2Cl)c(O)c1 |  |  |  |  |  |  |  |  | 7.31
Clc1ccc(Oc2ccc(Cl)cc2OCCCn2cc(COc3cc(Cl)ccc3Oc3ccc(Cl)cc3Cl)nn2)c(Cl)c1 | 103 | 4.2 | 1.17 | 4.68 | 4.61 |  |  |  | 
Oc1cc(Cl)ccc1Oc1ccc(Cl)cc1Cl |  |  |  |  |  | 5.8 | 6.16 |  | 
O=[N+]([O-])c1cc(Oc2ccc(Cl)cc2Cl)c(OCc2cn(CCOc3cc(Cl)ccc3Oc3ccc(Cl)cc3Cl)nn2)cc1Cl | 91.8 | 3.6 | 0.95 | 4.53 | 4.54 |  |  |  | 
O=[N+]([O-])c1cc(Oc2ccc(Cl)cc2Cl)c(OCc2cn(CCCOc3cc(Cl)ccc3Oc3ccc(Cl)cc3Cl)nn2)cc1Cl | 81.9 | 3.2 | 1.14 | 4.65 | 4.59 |  |  |  | 
Clc1ccc(Oc2ccc(Cl)cc2OCCCCCCOc2cc(Cl)ccc2Oc2ccc(Cl)cc2Cl)c(Cl)c1 | 63.3 | 3.1 | 0.95 | 4.67 | 4.69 |  |  |  | 
